In US10941382B2, “Platelet production promoter and method of producing platelets using same” (Kyoto University, priority 2016, dated 2021):

Experiments:
[1] = tested on: reporter immortalized megakaryocyte cell line (MKCL#12-23 cre2); assay: VENUS fluorescence intensity of reporter immortalized megakaryocyte cell line cultured with inhibitor; assay type: cell-based, human; details: 7th day of culture; 96-well dish; medium with 10 μM Y-27632, 50 ng/mL TPO, 50 ng/mL SCF; versus 0.1% DMSO negative control
Description: The platelet production-promoting effect of a Wnt inhibitor and FLT3 inhibitor was then investigated. The aforementioned reporter immortalized megakaryocyte cell line (MKCL#12-23 cre2) was cultured in a 96-well dish on a differentiation medium supplemented with the particular inhibitor at a prescribed concentration, 10 μM Y-27632, 50 ng/mL TPO, and 50 ng/mL SCF, or on a differentiation medium supplemented with 0.75 μM SR1, 10 μM Y-27632, 50 ng/mL TPO, and 50 ng/mL SCF (positive control), or on a differentiation medium supplemented with 0.1% DMSO, 10 μM Y-27632, 50 ng/mL TPO, and 50 ng/mL SCF (negative control). When the VENUS fluorescence intensity was measured on the cells on the 7th day of culture, the fluorescence intensity was increased for media to which the Wnt inhibitor or FLT3 inhibitor had been added. The results of calculation of the relative fluorescence intensity are given in FIG. 3, where the platelet count for use of the particular inhibitor was corrected with the platelet count for the positive control (made 100%) and the platelet count for the negative control (made 0%).

MKCL SeV2 = assay: Relative number of platelets by FACS (anti-CD41/anti-CD42b) from immortalized megakaryocyte line cultured with inhibitor; assay type: cell-based, human; details: 7th day of cultivation; 6-well dish; medium with 10 μM Y-27632, 50 ng/mL TPO, 50 ng/mL SCF; conclusion from FIG. 3 and FIG. 4 results
Description: The platelet production-promoting effect of the Wnt inhibitor and FLT3 inhibitor was then investigated. MKCL SeV2, on which the aforementioned reporter immortalized megakaryocyte cell line (MKCL#12-23 cre2) was based, was cultured in a 6-well dish on a differentiation medium supplemented with the Wnt or FLT3 inhibitor, 10 μM Y-27632, 50 ng/mL TPO, and 50 ng/mL SCF, or on a differentiation medium supplemented with 0.75 μM SR1, 10 μM Y-27632, 50 ng/mL TPO, and 50 ng/mL SCF (positive control), or on a differentiation medium supplemented with 0.1% DMSO, 10 μM Y-27632, 50 ng/mL TPO, and 50 ng/mL SCF (negative control). On the 7th day of cultivation, the culture medium was suspended and the supernatant was recovered; staining with anti-CD41 antibody and anti-CD42b antibody was performed; and FACS analysis was carried out. The relative number of platelets was calculated with correction of the platelet count for use of the particular inhibitor with the platelet count for the positive control (made 100%) and the platelet count for the negative control (made 0%) (FIG. 4).

iPS cells (TkDA3-4) = assay: Platelet production from iPS cell-derived cells under nonuse of feeder cells, FACS (anti-CD41/anti-CD42b); assay type: cell-based; details: 10 days of culture, 1 μM C59 or 3.3 μM FLT3 inhibitor versus 0.75 μM SR1, heparin, Y-27632, TPO, SCF
Description: iPS cells (TkDA3-4) were cultured and a colony was detached using a cell scraper and was cultured on a differentiation medium supplemented with […] VEGF. After 14 days, the cells were recovered using a cell scraper and 25 U/mL heparin, 10 μM Y-27632, 100 ng/mL TPO, and 50 ng/mL SCF were added. 0.1% DMSO, 0.75 μM SR1, 1 μM C59 (Calbiochem), or 3.3 μM FLT3 inhibitor (Santa Cruz Biotechnology) was also added to this culture medium and culture was carried out for 10 days. This was also carried out under the condition of the use of feeder cells as described above. The obtained cells were suspended and the supernatant was recovered; staining with anti-CD41 antibody and anti-CD42b antibody was performed; and FACS analysis was carried out (FIG. 4).

Compound	VENUS fluorescence intensity [1]	platelet production-promoting effect (platelet inducer) (MKCL SeV2)	platelet production capacity compared with SR1 (iPS cells (TkDA3-4))
COc1ccc(C(=O)Nc2sc3c(c2C(N)=O)CCCC3)cc1OC [FLT3 inhibitor, 2-[(3,4-dimethoxybenzoyl)amino]-4,5,6,7-tetrahydrobenzo[b]thiophene-3-carboxamide]	increased	strong platelet inducers	same as or greater
Cc1cc(-c2ccc(CC(=O)Nc3ccc(-c4cccnc4)cc3)cc2)ccn1 [C59, 4-(2-methyl-4-pyridinyl)-N-[4-(3-pyridinyl)phenyl]benzeneacetamide]	increased	strong platelet inducers	same as or greater
